Experimental data reported in patent US8440612B2, “Controlling giardiosis” (Bayer Intellectual Property GmbH, priority 2008, dated 2013).
Where “and” joins values, the source holds several entries; their conditions need not be identical. Equal values may be shown once.

Columns and labels:
Giardia duodenalis [1] = test: Giardia cyst excretion in infected Beagle puppies, oral dose on three successive days (Biological Example 2); type: in vivo
Experimental: (§1) Method: The quantitative determination of the cyst excretion was performed using a modified version of Hewlett (18): 4 g faeces were dissolved in 100 ml of water, sieved and allowed to sediment. The sediment was applied to a 1 M sucrose gradient (specific gravity 1.13), and the cysts, which were concentrated at the sucrose/water boundary layer after the centrifugation were pipetted off. After a wash step followed by centrifugation, the cysts in the pellet were counted. To this end, an aliquot of the pellet was counted under the microscope, and the number of cysts per g faeces was calculated.
Beagle puppies aged 11-15 weeks which had at least 2 weeks to settle in the animal centre before being infected were infected orally with 50 000 Giardia duodenalis cysts before the beginning of the study. The cysts for the infection were obtained with the aid of a sucrose gradient from the faeces of dogs which excreted Giardia cysts and stored at 4 degrees centigrade in Bacto-Casitone medium for no longer than 2 weeks. 18 puppies which excreted Giardia cysts were included in the study and kept in individual cages in order to collect the daily total faeces. The quantitative determination of the cyst excretion was performed as an […], with the modification that the aliquot of the pellet was counted under the microscope with the aid of a Fuchs-Rosenthal hematocytometer. The quantitative determination of the cyst excretion was performed for 4 days before the treatment (day −3 to 0), and the puppies were divided randomly into three groups, taking into consideration the cyst excretion. […] The 6 dogs of the control group remained untreated. The quantitative determination of the cyst excretion was continued from day 1 to day 8 after the treatment.

Giardia duodenalis [2] = test: Giardia cyst excretion in infected Beagle puppies, single oral dose (Biological Example 1); type: in vivo
From the text: Beagle puppies aged 10-11 weeks which had 11 days to settle in the animal centre before being infected were infected orally with 50 000 Giardia duodenalis cysts. The cysts for the infection were obtained with the aid of a sucrose gradient from the faeces of dogs which excreted Giardia cysts and stored at 4 degrees centigrade in Bacto-Casitone medium for no longer than 2 weeks. From day 10 after the infection, the puppies were kept in individual cages in order to collect the daily total faeces for each individual. The quantitative determination of the cyst excretion was performed in the 4 days prior to treatment (day −3 to 0), and the puppies were divided randomly into two groups, taking into consideration the cyst excretion. […] The quantitative determination of the cyst excretion was continued from day 1 to day 8 after the treatment.
Results: The activity was calculated using the following formula:
as §1

## CC1CS(=O)(=O)CCN1N=Cc1ccc([N+](=O)[O-])o1 (stereo not shown) [nifurtimox]
Giardia duodenalis [1]; calculated activity on cyst excretion versus infected untreated control, day 3 to 8, 50 mg/kg oral on days 0, 1 and 2, 50 mg/kg
  Activity: 98.6%
Giardia duodenalis [1]; group line Σ (6 dogs), D0, day of treatment, 50 mg/kg oral on days D0, D1 and D2
  Σ Giardia cyst excretion D0: 61098 cysts per g faeces
Giardia duodenalis [1]; group line Σ (6 dogs), D1, day of treatment, 50 mg/kg oral on days D0, D1 and D2
  Σ Giardia cyst excretion D1: 872 cysts per g faeces
Giardia duodenalis [1]; group line Σ (6 dogs), D2, day of treatment, 50 mg/kg oral on days D0, D1 and D2
  Σ Giardia cyst excretion D2: 211 cysts per g faeces
Giardia duodenalis [1]; group line Σ (6 dogs), D3, after the treatment, 50 mg/kg oral on days D0, D1 and D2
  Σ Giardia cyst excretion D3: 0 cysts per g faeces
Giardia duodenalis [1]; group line Σ (6 dogs), D4, after the treatment, 50 mg/kg oral on days D0, D1 and D2
  Σ Giardia cyst excretion D4: 135 cysts per g faeces
Giardia duodenalis [1]; group line Σ (6 dogs), D5, after the treatment, 50 mg/kg oral on days D0, D1 and D2
  Σ Giardia cyst excretion D5: 638 cysts per g faeces
Giardia duodenalis [1]; group line Σ (6 dogs), D6, after the treatment, 50 mg/kg oral on days D0, D1 and D2
  Σ Giardia cyst excretion D6: 339 cysts per g faeces
Giardia duodenalis [1]; group line Σ (6 dogs), D7, after the treatment, 50 mg/kg oral on days D0, D1 and D2
  Σ Giardia cyst excretion D7: 54 cysts per g faeces
Giardia duodenalis [1]; group line Σ (6 dogs), D8, after the treatment, 50 mg/kg oral on days D0, D1 and D2
  Σ Giardia cyst excretion D8: 399 cysts per g faeces
Giardia duodenalis [1]; group line Σ (6 dogs), day −1, before treatment, 50 mg/kg oral on days D0, D1 and D2
  Σ Giardia cyst excretion D−1: 37547 cysts per g faeces
Giardia duodenalis [1]; group line Σ (6 dogs), day −2, before treatment, 50 mg/kg oral on days D0, D1 and D2
  Σ Giardia cyst excretion D−2: 28220 cysts per g faeces
Giardia duodenalis [1]; group line Σ (6 dogs), day −3, before treatment, 50 mg/kg oral on days D0, D1 and D2
  Σ Giardia cyst excretion D−3: 49751 cysts per g faeces
Giardia duodenalis [1]; group, after treatment, 50 mg/kg oral on days 0, 1 and 2
  Σ Giardia cyst excretion Day 3 to 8: 261 cysts per g faeces
Giardia duodenalis [1]; group, before treatment, 50 mg/kg oral on days 0, 1 and 2
  Σ Giardia cyst excretion Day: −3 to 0: 44154 cysts per g faeces
Giardia duodenalis [1]; individual dogs, D0, day of treatment, 50 mg/kg oral on days D0, D1 and D2, 50 mg/kg
  Giardia cyst excretion D0: 60420 cysts per g faeces and 675 cysts per g faeces and 89880 cysts per g faeces and 86 cysts per g faeces and 103442 cysts per g faeces and 112084 cysts per g faeces
Giardia duodenalis [1]; individual dogs, D1, day of treatment, 50 mg/kg oral on days D0, D1 and D2, 50 mg/kg
  Giardia cyst excretion D1: 809 cysts per g faeces and 187 cysts per g faeces and 974 cysts per g faeces and 0 cysts per g faeces and 1261 cysts per g faeces and 2000 cysts per g faeces
Giardia duodenalis [1]; individual dogs, D2, day of treatment, 50 mg/kg oral on days D0, D1 and D2, 50 mg/kg
  Giardia cyst excretion D2: 741 cysts per g faeces and 0 cysts per g faeces (4×) and 527 cysts per g faeces
Giardia duodenalis [1]; individual dogs, D3, after the treatment, 50 mg/kg oral on days D0, D1 and D2
  Giardia cyst excretion D3: 0 cysts per g faeces
Giardia duodenalis [1]; individual dogs, D4, after the treatment, 50 mg/kg oral on days D0, D1 and D2, 50 mg/kg
  Giardia cyst excretion D4: 0 cysts per g faeces (4×) and 185 cysts per g faeces and 622 cysts per g faeces
Giardia duodenalis [1]; individual dogs, D5, after the treatment, 50 mg/kg oral on days D0, D1 and D2, 50 mg/kg
  Giardia cyst excretion D5: 229 cysts per g faeces and 0 cysts per g faeces (3×) and 2299 cysts per g faeces and 1299 cysts per g faeces
Giardia duodenalis [1]; individual dogs, D6, after the treatment, 50 mg/kg oral on days D0, D1 and D2, 50 mg/kg
  Giardia cyst excretion D6: 0 cysts per g faeces (3×) and 98 cysts per g faeces and 1842 cysts per g faeces and 93 cysts per g faeces
Giardia duodenalis [1]; individual dogs, D7, after the treatment, 50 mg/kg oral on days D0, D1 and D2, 50 mg/kg
  Giardia cyst excretion D7: 0 cysts per g faeces (4×) and 87 cysts per g faeces and 237 cysts per g faeces
Giardia duodenalis [1]; individual dogs, D8, after the treatment, 50 mg/kg oral on days D0, D1 and D2, 50 mg/kg
  Giardia cyst excretion D8: 517 cysts per g faeces and 0 cysts per g faeces (3×) and 975 cysts per g faeces and 903 cysts per g faeces
Giardia duodenalis [1]; individual dogs, day −1, before treatment, 50 mg/kg oral on days D0, D1 and D2, 50 mg/kg
  Giardia cyst excretion D−1: 25515 cysts per g faeces and 3472 cysts per g faeces and 37203 cysts per g faeces and 8528 cysts per g faeces and 91293 cysts per g faeces and 59273 cysts per g faeces
Giardia duodenalis [1]; individual dogs, day −2, before treatment, 50 mg/kg oral on days D0, D1 and D2, 50 mg/kg
  Giardia cyst excretion D−2: 10685 cysts per g faeces and 8278 cysts per g faeces and 1618 cysts per g faeces and 133 cysts per g faeces and 79689 cysts per g faeces and 68914 cysts per g faeces
Giardia duodenalis [2]; calculated activity on cyst excretion versus infected untreated control, day 1 to 8, single oral dose 50 mg/kg, 50 mg/kg
  Activity: 90.4%
Giardia duodenalis [2]; group line Σ (7 dogs), day 1 after treatment, 50 mg/kg oral on day D0
  Σ Giardia cyst excretion D1: 1516 cysts per g faeces
Giardia duodenalis [2]; group line Σ (7 dogs), day 2 after treatment, 50 mg/kg oral on day D0
  Σ Giardia cyst excretion D2: 26 cysts per g faeces
Giardia duodenalis [2]; group line Σ (7 dogs), day 3 after treatment, 50 mg/kg oral on day D0
  Σ Giardia cyst excretion D3: 32 cysts per g faeces
Giardia duodenalis [2]; group line Σ (7 dogs), day 4 after treatment, 50 mg/kg oral on day D0
  Σ Giardia cyst excretion D4: 473 cysts per g faeces
Giardia duodenalis [2]; group line Σ (7 dogs), day 5 after treatment, 50 mg/kg oral on day D0
  Σ Giardia cyst excretion D5: 629 cysts per g faeces
Giardia duodenalis [2]; group line Σ (7 dogs), day 6 after treatment, 50 mg/kg oral on day D0
  Σ Giardia cyst excretion D6: 2523 cysts per g faeces
Giardia duodenalis [2]; group line Σ (7 dogs), day 7 after treatment, 50 mg/kg oral on day D0
  Σ Giardia cyst excretion D7: 2403 cysts per g faeces
Giardia duodenalis [2]; group line Σ (7 dogs), day 8 after treatment, 50 mg/kg oral on day D0
  Σ Giardia cyst excretion D8: 3127 cysts per g faeces
Giardia duodenalis [2]; group line Σ (7 dogs), day of treatment, 50 mg/kg oral on day D0
  Σ Giardia cyst excretion D0: 8996 cysts per g faeces
Giardia duodenalis [2]; group line Σ (7 dogs), day −1, before treatment, 50 mg/kg oral on day D0
  Σ Giardia cyst excretion D−1: 39966 cysts per g faeces
Giardia duodenalis [2]; group line Σ (7 dogs), day −2, before treatment, 50 mg/kg oral on day D0
  Σ Giardia cyst excretion D−2: 38482 cysts per g faeces
Giardia duodenalis [2]; group line Σ (7 dogs), day −3, before treatment, 50 mg/kg oral on day D0
  Σ Giardia cyst excretion D−3: 9762 cysts per g faeces
Giardia duodenalis [2]; group, after treatment, 50 mg/kg oral once on day 0
  Σ Giardia cyst excretion Day 1 to 8: 1341 cysts per g faeces
Giardia duodenalis [2]; group, before treatment, 50 mg/kg oral once on day 0
  Σ Giardia cyst excretion Day −3 to 0: 24302 cysts per g faeces
Giardia duodenalis [2]; individual dogs, day 1 after treatment, 50 mg/kg oral on day D0, 50 mg/kg
  Giardia cyst excretion D1: 504 cysts per g faeces and 4928 cysts per g faeces and 152 cysts per g faeces and 0 cysts per g faeces (2×) and 2636 cysts per g faeces and 2391 cysts per g faeces
Giardia duodenalis [2]; individual dogs, day 2 after treatment, 50 mg/kg oral on day D0, 50 mg/kg
  Giardia cyst excretion D2: 0 cysts per g faeces (6×) and 180 cysts per g faeces
Giardia duodenalis [2]; individual dogs, day 3 after treatment, 50 mg/kg oral on day D0, 50 mg/kg
  Giardia cyst excretion D3: 0 cysts per g faeces (6×) and 224 cysts per g faeces
Giardia duodenalis [2]; individual dogs, day 4 after treatment, 50 mg/kg oral on day D0, 50 mg/kg
  Giardia cyst excretion D4: 590 cysts per g faeces and 0 cysts per g faeces (2×) and 652 cysts per g faeces and 424 cysts per g faeces and 1451 cysts per g faeces and 193 cysts per g faeces
Giardia duodenalis [2]; individual dogs, day 5 after treatment, 50 mg/kg oral on day D0, 50 mg/kg
  Giardia cyst excretion D5: 1700 cysts per g faeces and 1094 cysts per g faeces and 0 cysts per g faeces (2×) and 137 cysts per g faeces and 1318 cysts per g faeces and 153 cysts per g faeces
Giardia duodenalis [2]; individual dogs, day 6 after treatment, 50 mg/kg oral on day D0, 50 mg/kg
  Giardia cyst excretion D6: 3693 cysts per g faeces and 2000 cysts per g faeces and 1201 cysts per g faeces and 353 cysts per g faeces and 0 cysts per g faeces and 4102 cysts per g faeces and 6315 cysts per g faeces
Giardia duodenalis [2]; individual dogs, day 7 after treatment, 50 mg/kg oral on day D0, 50 mg/kg
  Giardia cyst excretion D7: 8881 cysts per g faeces and 431 cysts per g faeces and 1873 cysts per g faeces and 608 cysts per g faeces and 191 cysts per g faeces and 4615 cysts per g faeces and 223 cysts per g faeces
Giardia duodenalis [2]; individual dogs, day 8 after treatment, 50 mg/kg oral on day D0, 50 mg/kg
  Giardia cyst excretion D8: 3294 cysts per g faeces and 517 cysts per g faeces and 14181 cysts per g faeces and 0 cysts per g faeces and 1621 cysts per g faeces and 1768 cysts per g faeces and 508 cysts per g faeces
Giardia duodenalis [2]; individual dogs, day of treatment, 50 mg/kg oral on day D0, 50 mg/kg
  Giardia cyst excretion D0: 4397 cysts per g faeces and 8456 cysts per g faeces and 0 cysts per g faeces and 375 cysts per g faeces and 19681 cysts per g faeces and 16419 cysts per g faeces and 13644 cysts per g faeces
Giardia duodenalis [2]; individual dogs, day −1, before treatment, 50 mg/kg oral on day D0, 50 mg/kg
  Giardia cyst excretion D−1: 1306 cysts per g faeces and 14238 cysts per g faeces and 2264 cysts per g faeces and 788 cysts per g faeces and 189275 cysts per g faeces and 45725 cysts per g faeces and 26163 cysts per g faeces
Giardia duodenalis [2]; individual dogs, day −2, before treatment, 50 mg/kg oral on day D0, 50 mg/kg
  Giardia cyst excretion D−2: 907 cysts per g faeces and 923 cysts per g faeces and 5897 cysts per g faeces and 905 cysts per g faeces and 186750 cysts per g faeces and 45672 cysts per g faeces and 28322 cysts per g faeces
